Results reported in US6358885B1, “Substituted phenylheterocyclic herbicides” (Mississippi State University, priority 1992, dated 2002).

What was measured:
blackgrass = experiment: Test B preemergence/postemergence greenhouse plant response rating 0 to 10; assay type: in vivo, Alopecurus myosuroides; settings: for Plant response rating, Blackgrass: 0 to 10 scale
In short: (§1)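 Planted seeds are treated preemergence with compound dissolved in a non-phytotoxic solvent, while postemergence applications go onto plants of two to eighteen cm. Plants stay in the greenhouse twelve to sixteen days and are then rated visually relative to controls.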

corn = experiment: as above; assay type: in vivo, Zea mays; settings: for Plant response rating, Corn: 0 to 10 scale
In short: as §1

cotton [1] = experiment: as above; assay type: in vivo, Gossypium hirsutum; settings: for Plant response rating, Cotton: 0 to 10 scale
In short: as §1

crabgrass = experiment: as above; assay type: in vivo, Digitaria spp.; settings: for Plant response rating, Crabgrass: 0 to 10 scale
In short: as §1

rice = experiment: as above; assay type: in vivo, Oryza sativa; settings: 0 to 10 scale
In short: as §1

sorghum = experiment: as above; assay type: in vivo, Sorghum bicolor; settings: 0 to 10 scale
In short: as §1

sugar beet = experiment: as above; assay type: in vivo, Beta vulgaris; settings: 0 to 10 scale
In short: as §1

wheat [2] = experiment: as above; assay type: in vivo, Triticum aestivum; settings: 0 to 10 scale
In short: as §1

wild oat = experiment: as above; assay type: in vivo, Avena fatua; settings: POSTEMERGENCE, 0 to 10 scale
In short: as §1

purple nutsedge = experiment: as above; assay type: in vivo, Cyperus rotundus; settings: 0 to 10 scale
In short: as §1

cotton [3] = experiment: Test C preemergence/postemergence greenhouse plant response rating 0 to 100; assay type: in vivo, Gossypium hirsutum; settings: POSTEMERGENCE; for Plant response rating, Cotton: 0 to 100 scale
In short: (§2)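 Compounds in non-phytotoxic solvent applied preemergence to sandy loam one day after planting, postemergence at the 1–4 leaf stage, or to ~2.5 cm floodwater over silt loam.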

lambsquarters = experiment: as above; assay type: in vivo, Chenopodium album; settings: POSTEMERGENCE; for Plant response rating Lambsquarters: 0 to 100 scale
In short: as §2

pigweed = experiment: as above; assay type: in vivo, Amaranthusretroflexus; settings: POSTEMERGENCE; for Plant response rating Pigweed: 0 to 100 scale
In short: as §2

velvetleaf = experiment: as above; assay type: in vivo, Abutilon theophrasti; settings: POSTEMERGENCE; for Plant response rating, Velvetleaf: 0 to 100 scale
In short: as §2

wheat [4] = experiment: as above; assay type: in vivo, Triticum aestivum; settings: POSTEMERGENCE; for Plant response rating, Wheat: 0 to 100 scale
In short: as §2

wild buckwheat = experiment: as above; assay type: in vivo, Polygonum convolvulus; settings: POSTEMERGENCE; for Plant response rating, Wild buckwheat: 0 to 100 scale
In short: as §2

duck salad = experiment: Test C flood test plant response rating 0 to 100; assay type: in vivo, Heteranthera limosa; settings: for Plant response rating Duck salad: flood test species listed under POSTEMERGENCE, 0 to 100 scale
In short: as §2

barnyardgrass = experiment: Test C flood test plant response rating 0 to 100; assay type: in vivo, Echinochloa crus-galli; settings: for Plant response rating (0 to 100), Barnyardgrass: under POSTEMERGENCE head (flood test species); for Plant response rating, Barnyardgrass: flood test species listed under POSTEMERGENCE, 0 to 100 scale
In short: as §2

In the case of `CC(C)COc1cc(-c2nn3c(c2Cl)CCCC3)c(F)cc1Cl` [Compound 30], the “Plant response rating (0 to 10 scale), Blackgrass” value (blackgrass; POSTEMERGENCE, Rate 50 g/ha) is reported as 5, the “Plant response rating, Blackgrass” value (blackgrass; POSTEMERGENCE, Rate 200 g/ha) is reported as 5 and the “Plant response rating, Blackgrass” value (blackgrass; PREEMERGENCE, Rate 50 g/ha) is reported as 0. The “Plant response rating, Blackgrass” value (blackgrass; Rate 200 g/ha, PREEMERGENCE) was 0, the “Plant response rating (0 to 10 scale), Corn” value (corn; POSTEMERGENCE, Rate 50 g/ha) was 4 and the “Plant response rating, Corn” value (corn; POSTEMERGENCE, Rate 200 g/ha) was 4. For the same molecule, the “Plant response rating, Corn” value (corn; PREEMERGENCE, Rate 50 g/ha) was 0, the “Plant response rating, Corn” value (corn; Rate 200 g/ha, PREEMERGENCE) was 1 and the “Plant response rating (0 to 10 scale), Cotton” value (cotton [1]; POSTEMERGENCE, Rate 50 g/ha) was 10. The “Plant response rating, Cotton” value (cotton [1]; POSTEMERGENCE, Rate 200 g/ha) was 10, the “Plant response rating, Cotton” value (cotton [1]; PREEMERGENCE, Rate 50 g/ha) was 2 and the “Plant response rating, Cotton” value (cotton [1]; Rate 200 g/ha, PREEMERGENCE) was 6. For the same molecule, the “Plant response rating (0 to 10 scale), Crabgrass” value (crabgrass; POSTEMERGENCE, Rate 50 g/ha) was 3, the “Plant response rating, Crabgrass” value (crabgrass; POSTEMERGENCE, Rate 200 g/ha) was 2 and the “Plant response rating, Crabgrass” value (crabgrass; PREEMERGENCE, Rate 50 g/ha) was 6. For the same molecule, the “Plant response rating, Crabgrass” value (crabgrass; Rate 200 g/ha, PREEMERGENCE) was 9, the “Plant response rating, Rice” value (rice; POSTEMERGENCE, Rate 50 g/ha) was 5 and the “Plant response rating, Rice” value (rice; PREEMERGENCE, Rate 50 g/ha) was 0. The “Plant response rating, Rice” value (rice; Rate 200 g/ha, POSTEMERGENCE) was 5, the “Plant response rating, Rice” value (rice; Rate 200 g/ha, PREEMERGENCE) was 2 and the “Plant response rating, Sorghum” value (sorghum; POSTEMERGENCE, Rate 50 g/ha) was 4. For the same molecule, the “Plant response rating, Sorghum” value (sorghum; PREEMERGENCE, Rate 50 g/ha) was 0, the “Plant response rating, Sorghum” value (sorghum; Rate 200 g/ha, POSTEMERGENCE) was 6 and the “Plant response rating, Sorghum” value (sorghum; Rate 200 g/ha, PREEMERGENCE) was 0. For the same molecule, the “Plant response rating, Sugar beet” value (sugar beet; POSTEMERGENCE, Rate 50 g/ha) was 10, the “Plant response rating, Sugar beet” value (sugar beet; PREEMERGENCE, Rate 50 g/ha) was 5 and the “Plant response rating, Sugar beet” value (sugar beet; Rate 200 g/ha, POSTEMERGENCE) was 10. The “Plant response rating, Sugar beet” value (sugar beet; Rate 200 g/ha, PREEMERGENCE) was 9, the “Plant response rating, Wheat” value (wheat [2]; POSTEMERGENCE, Rate 50 g/ha) was 4 and the “Plant response rating, Wheat” value (wheat [2]; PREEMERGENCE, Rate 50 g/ha) was 0. The “Plant response rating, Wheat” value (wheat [2]; Rate 200 g/ha, POSTEMERGENCE) was 5, the “Plant response rating, Wheat” value (wheat [2]; Rate 200 g/ha, PREEMERGENCE) was 2 and the “Plant response rating, Wild oat” value (wild oat; Rate 50 g/ha) was 5. For the same molecule, the “Plant response rating, Wild oat” value (wild oat; Rate 200 g/ha) was 6, the “Plant response rating, Nutsedge” value (purple nutsedge; POSTEMERGENCE, Rate 50 g/ha) was 2 and the “Plant response rating, Nutsedge” value (purple nutsedge; PREEMERGENCE, Rate 50 g/ha) was 0. For the same molecule, the “Plant response rating, Nutsedge” value (purple nutsedge; Rate 200 g/ha, POSTEMERGENCE) was 5, the “Plant response rating, Nutsedge” value (purple nutsedge; Rate 200 g/ha, PREEMERGENCE) was 0 and the “Plant response rating, Cotton” value (cotton [3]; 62 g/ha) was 100. The “Plant response rating, Cotton” value (cotton [3]; 250 g/ha) was 100, the “Plant response rating (0 to 100), Cotton” value (cotton [3]; Rate 4 g/ha) was 100 and the “Plant response rating (0 to 100), Cotton” value (cotton [3]; Rate 16 g/ha) was 100. The “Plant response rating Lambsquarters” value (lambsquarters; 62 g/ha) was 90, the “Plant response rating Lambsquarters” value (lambsquarters; 250 g/ha) was 100 and the “Plant response rating (0 to 100), Lambsquarters” value (lambsquarters; Rate 4 g/ha) was 50. For the same molecule, the “Plant response rating (0 to 100), Lambsquarters” value (lambsquarters; Rate 16 g/ha) was 70, the “Plant response rating Pigweed” value (pigweed; 62 g/ha) was 100 and the “Plant response rating Pigweed” value (pigweed; 250 g/ha) was 100. The “Plant response rating (0 to 100), Pigweed” value (pigweed; Rate 4 g/ha) was 100, the “Plant response rating (0 to 100), Pigweed” value (pigweed; Rate 16 g/ha) was 100 and the “Plant response rating, Velvetleaf” value (velvetleaf; 62 g/ha) was 100. The “Plant response rating, Velvetleaf” value (velvetleaf; 250 g/ha) was 100, the “Plant response rating (0 to 100), Velvetleaf” value (velvetleaf; Rate 4 g/ha) was 0 and the “Plant response rating (0 to 100), Velvetleaf” value (velvetleaf; Rate 16 g/ha) was 60. For the same molecule, the “Plant response rating, Wheat” value (wheat [4]; 62 g/ha) was 60, the “Plant response rating, Wheat” value (wheat [4]; 250 g/ha) was 90 and the “Plant response rating (0 to 100), Wheat” value (wheat [4]; Rate 4 g/ha) was 20. For the same molecule, the “Plant response rating (0 to 100), Wheat” value (wheat [4]; Rate 16 g/ha) was 30, the “Plant response rating, Wild buckwheat” value (wild buckwheat; 62 g/ha) was 80 and the “Plant response rating, Wild buckwheat” value (wild buckwheat; 250 g/ha) was 100. The “Plant response rating (0 to 100), Wild buckwheat” value (wild buckwheat; Rate 4 g/ha) was 50, the “Plant response rating (0 to 100), Wild buckwheat” value (wild buckwheat; Rate 16 g/ha) was 70 and the “Plant response rating (0 to 100), Duck salad” value (duck salad; POSTEMERGENCE section, flood test, Rate 4 g/ha) was 0. For the same molecule, the “Plant response rating (0 to 100), Duck salad” value (duck salad; Rate 16 g/ha, under POSTEMERGENCE head (flood test species)) was 30, the “Plant response rating Duck salad” value (duck salad; 62 g/ha) was 40 and the “Plant response rating Duck salad” value (duck salad; 250 g/ha) was 60. The “Plant response rating (0 to 100), Barnyardgrass” value (barnyardgrass; Rate 4 g/ha) was 85, the “Plant response rating (0 to 100), Barnyardgrass” value (barnyardgrass; Rate 16 g/ha) was 95 and the “Plant response rating, Barnyardgrass” value (barnyardgrass; 62 g/ha) was 100. The “Plant response rating, Barnyardgrass” value (barnyardgrass; 250 g/ha) was 100.
